{"source": "patent US10952992B2", "about": "“Methods of treating intraocular pressure with activators of Tie-2” (Aerpio Pharmaceuticals, Inc., priority 2015, dated 2021)", "key": {"[1]": {"experiment": "Example 2 iris, retina, choroid and cornea tissue concentrations", "assay_type": "in vivo, male New Zealand White rabbits", "procedure": "(§1) To measure the concentration of Compound 1 in plasma and ocular tissues following topical ocular, subcutaneous, and intravitreal administration, New Zealand White rabbits were administered Compound 1, and plasma and ocular samples were collected at pre-determined time points. Compound 1 formulations were prepared fresh on each day of dosing.\n(§2) Ocular tissue samples from both eyes of each animal were collected and weights were recorded. Plasma and ocular tissue sample concentrations of Compound 1 were determined by LC-MS/MS.\n(§3) Animals were anesthetized for ocular (topical) and intravitreal dosing following the 12IA7 IACUC protocol. Each rabbit received a bolus dose of test formulation either via topical ocular administration 3 times daily on Days 1 and 2 (at 0, 6, and 12 hours), and once on Day 3 (at 0 hours) into both eyes; via intravitreal administration into both eyes once on Day 1 (at 0 hours); or via subcutaneous administration 2 times daily on Days 1 and 2 (at 0 and 8 hours) and once daily on Day 3 (at 0 hours). Doses were given within an approximately 1 hour window each day where applicable.\n(§4) On Day 1, for intravitreal administration, or on Day 3, for topical ocular and subcutaneous administration, at the appropriate ocular tissue collection time points, animals were euthanized and both eyes were enucleated immediately. Following enucleation, each eye was rinsed with phosphate-buffered saline. Ocular tissue samples from both eyes of each animal were collected at predetermined time points and weights were recorded. All the samples were frozen immediately on dry ice, and stored at −60° C. to −80° C. pending bioanalysis.\n(§5) An LC-MS/MS method was developed for the determination of Compound 1 in rabbit aqueous tissues (plasma, aqueous and vitreous humor) and solid ocular tissue samples. A pre-study standard curve was analyzed to determine the specificity, range, and lower limit of quantitation of the method. Plasma and tissue homogenate study samples were extracted and analyzed. All the samples were treated identically to the standards.\n(§6) One eight-point standard curve was used in each analytical batch. To be accepted, each batch must have had at least five of eight standards with accuracy within ±20% of nominal, except at the lower limit of quantification (LLOQ), where ±25% was acceptable."}, "[2]": {"experiment": "Example 2 aqueous humor concentrations", "assay_type": "in vivo, male New Zealand White rabbits", "details": "intravitreal, topical ocular, subcutaneous", "procedure": "as §1, §2, §3, §4, §5, §6"}}, "data": [{"smiles": "COC(=O)N[C@@H](Cc1ccccc1)C(=O)N[C@@H](Cc1ccc(NS(=O)(=O)O)cc1)c1csc(-c2cccs2)n1", "note": "[Compound 1]", "values": [{"measurement": "iris, retina, choroid, cornea concentrations, intravitreal relative to subcutaneous or ocular topical", "setting": "[1]; both test formulations", "value": "higher concentrations"}, {"measurement": "persistence of concentrations in all ocular tissues", "setting": "[1]; intravitreal administration of both test formulations", "value": "persisted at 72 hours"}, {"measurement": "rank order of exposure in aqueous and vitreous humor by route", "setting": "[2]", "value": "intravitreal>>topical ocular>subcutaneous"}]}]}
